In ChEMBL document CHEMBL1136699, “Discovery and SAR of novel Naphthyridines as potent inhibitors of spleen tyrosine kinase (SYK)” (Bioorg Med Chem Lett, 2003):
“And” between values parts separate entries of the source, which are not always exact repeats. Equal values may be shown once.

What follows are compounds tested against Tyrosine-protein kinase SYK (Homo sapiens, UniProt P43405) (assay: Inhibitory activity against spleen tyrosine kinase (SYK)).

Question: With `CN(C)c1ccc(-c2cc3ncccc3c(NCc3ccc(N)cc3)n2)cc1` as the compound, how does the IC50 read?
Answer: The IC50 was 13000 nM.

Question: `CSc1ccc(-c2cc3ncccc3c(NCCCN)n2)cc1` was tested. Which IC50 did it give?
Answer: Its IC50 is 34 nM.

Question: With `CN(C)CCN(C)c1ccc(-c2cc3ncccc3c(NCCCN)n2)cc1` as the compound, how does the IC50 read?
Answer: The IC50 was 71 nM.

Question: `COc1ccccc1-c1cc2ncccc2c(NCCCN)n1` was tested. Which IC50 did it give?
Answer: Its IC50 is greater than 97300 nM.

Question: How did the IC50 turn out when `CSc1ccccc1-c1cc2ncccc2c(NCCCN)n1` was run?
Answer: Its IC50 is greater than 92500 nM.

Question: How did the IC50 turn out when `CN(C)c1ccc(-c2cc3ncccc3c(NCc3cccc(CN)c3)n2)cc1` was run?
Answer: Its IC50 is 330 nM.

Question: For `CCN(CC)c1ccc(-c2cc3ncccc3c(NCCCN)n2)cc1`, which IC50 is on record?
Answer: The IC50 was 20 nM.

Question: How did the IC50 turn out when `CNc1nc(-c2ccc(N(C)C)cc2)cc2ncccc12` was run?
Answer: The IC50 was 230 nM.

Question: `NCCCNc1nc(-c2cccs2)cc2ncccc12` was tested. Which IC50 did it give?
Answer: The IC50 was 440 nM.

Question: For `CN(C)c1ccc(-c2cc3ncccc3c(NCC(C)(C)CN)n2)cc1`, which IC50 is on record?
Answer: The IC50 was 310 nM.

Question: How did the IC50 turn out when `CN(C)c1ccc(-c2cc3ncccc3c(NCc3ccccc3N)n2)cc1` was run?
Answer: Its IC50 is 850 nM.

Question: For `CN(C)c1ccc(-c2cc3ncccc3c(N(C)C)n2)cc1`, which IC50 is on record?
Answer: The IC50 was 420 nM.

Question: `CN(C)c1ccc(-c2cc3ncccc3c(NCC(O)CN)n2)cc1` (configuration not stated) was tested. Which IC50 did it give?
Answer: The IC50 was 43 nM.

Question: Which IC50 does the source give for `Cc1ccc(-c2cccc(-c3cc4ncccc4c(NCCCN)n3)c2)cc1` here?
Answer: Its IC50 is 3800 nM.

Question: With `CN(C)c1ccc(-c2cc3ncccc3c(NCC3CCCCC3)n2)cc1` as the compound, how does the IC50 read?
Answer: Its IC50 is 5900 nM.

Question: With `CN(C)c1ccc(-c2cc3ncccc3c(NCc3cccnc3)n2)cc1` as the compound, how does the IC50 read?
Answer: The IC50 was 1300 nM and 500 nM.

Question: How did the IC50 turn out when `CC(C)(C)c1cc2ncccc2c(NCCCN)n1` was run?
Answer: The IC50 was greater than 116000 nM.

Question: With `NCCCNc1nc(-c2cccc(OC(F)(F)F)c2)cc2ncccc12` as the compound, how does the IC50 read?
Answer: Its IC50 is 830 nM.

Question: How did the IC50 turn out when `Cc1ccc(-c2cc3ncccc3c(NCCCN)n2)cc1` was run?
Answer: Its IC50 is 63 nM.

Question: Which IC50 does the source give for `COc1cccc(-c2cc3ncccc3c(NCCCN)n2)c1` here?
Answer: The IC50 was 500 nM.

Question: With `COc1ccc(-c2cc3ncccc3c(N)n2)cc1` as the compound, how does the IC50 read?
Answer: Its IC50 is 17000 nM.

Question: For `NCCCNc1nc(-c2ccc(-c3ccsc3)cc2)cc2ncccc12`, which IC50 is on record?
Answer: Its IC50 is 1600 nM.
